Laboratory results as given in patent publication US11420967B2 (priority 2018, dated 2022).
Converted amounts (≈) assume the structure as drawn. Where two headings read alike, the source gives them in different places.

How the values were obtained:
[1] = Experimental toxicity study of i.p. injection in mouse (MTD, NOAEL); assay type: in vivo; conditions: for Maximal tolerated dose, Acute mouse: one i.p. injection; for Maximal tolerated dose, 28 Days Mouse (mg/kg bdip): repeated (28 days) i.p. injections
PD-GBM (classical) = assay: Cell-killing activity in patient-derived GBM cells, classical subtype (WST-1); assay type: cell-based, human; conditions: for EC50: Homo sapiens, 72 h
Experimental: (§1) To explore further the therapeutic potential of the compounds of the disclosure, the antitumor activity in human patient-derived GBM (PD-GBM) cells was measured in culture. Specifically, these cells represent a recognized preclinical model system for testing for the efficacy of novel treatments of GBM as they are categorized by their mutation profile in three subtypes (i.e., proneural, mesenchymal and classical) that may differentially respond to treatment. To test for potential liver toxicity, the human liver cell line HepG2, a commonly used cell culture model system, was treated. […] Data are the mean of at least three independent experiments performed in triplicate.
(§2) Cell viability was measured by quantifying changes in cell-permeable WST-1 color 3 days after treatment.
(§3) Cell culture. Cells were cultured in DMEM supplemented with 10% FBS, 100 U/mL penicillin, and 100 μg/mL streptomycin at 37° C. in a 5% CO2 humidified atmosphere. T98G and HepG2 cells (ATCC, Manassas, Va.) were authenticated by ATCC when purchased using human short tandem repeat analysis and maintained in culture for less than 6 months. Tumors were obtained from surgeries performed at the Swedish Medical Center (Seattle, Wash.) according to Institutional Review Board guidelines. Patient samples used in this study were diagnosed as WHO grade IV glioblastoma multiforme. Patient-derived GBM cells were established from the freshly resected tumor tissues and maintained in NeuroCult® NSA medium (Stem Cell Technologies) with B-27 serum-free supplement, 20 ng/mL epidermal growth factor and 20 ng/mL fibroblast growth factor 2 as previously described.
(§4) Cell viability. […] Maximal % killing was calculated as the % reduction in cell viability measured at all drug concentration. EC50 values were calculated and reported only when a curve was reliably extrapolated by Prism software. The solvent for all modified carbazoles was DMSO (0.1% final).

[2] = target: T1, colchicine site of tubulin (purified tubulin) (Bos taurus, UniProt P81947+Q6B856); assay: [3H]colchicine binding to purified tubulin; parameters: species or system bovine
T1 construct: from tissue; host or cells: native tubulin
T1 sequence (Q6B856 whole entry): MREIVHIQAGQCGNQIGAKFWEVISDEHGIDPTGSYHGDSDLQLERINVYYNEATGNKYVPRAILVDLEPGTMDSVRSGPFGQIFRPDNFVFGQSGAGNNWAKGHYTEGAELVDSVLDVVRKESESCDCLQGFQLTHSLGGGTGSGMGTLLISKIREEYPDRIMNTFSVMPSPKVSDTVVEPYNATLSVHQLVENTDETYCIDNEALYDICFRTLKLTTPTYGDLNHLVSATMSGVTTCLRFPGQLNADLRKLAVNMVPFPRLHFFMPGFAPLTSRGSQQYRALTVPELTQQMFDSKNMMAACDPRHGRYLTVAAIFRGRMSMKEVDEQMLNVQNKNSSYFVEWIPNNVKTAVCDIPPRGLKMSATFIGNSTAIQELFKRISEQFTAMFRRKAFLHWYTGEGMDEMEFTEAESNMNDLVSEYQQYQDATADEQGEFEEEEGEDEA
T1 sequence (P81947 whole entry): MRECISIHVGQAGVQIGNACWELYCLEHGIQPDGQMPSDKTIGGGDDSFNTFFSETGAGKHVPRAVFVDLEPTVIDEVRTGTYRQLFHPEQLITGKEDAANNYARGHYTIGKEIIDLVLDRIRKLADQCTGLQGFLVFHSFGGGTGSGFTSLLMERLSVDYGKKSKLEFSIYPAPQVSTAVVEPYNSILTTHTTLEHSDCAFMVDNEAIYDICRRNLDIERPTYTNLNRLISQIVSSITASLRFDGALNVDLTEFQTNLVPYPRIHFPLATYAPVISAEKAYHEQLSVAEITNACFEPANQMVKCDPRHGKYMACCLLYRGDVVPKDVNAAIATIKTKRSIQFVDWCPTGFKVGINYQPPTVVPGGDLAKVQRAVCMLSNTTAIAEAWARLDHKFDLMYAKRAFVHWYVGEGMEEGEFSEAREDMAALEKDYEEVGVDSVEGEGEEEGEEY
Experimental: (§5) Results are mean±SEM from n=4-5 independent experiments performed in triplicates. […] Results are from 3 independent experiments performed in duplicate.
First, it was determined whether compounds of the disclosure compete for [^3H]colchicine binding to native purified tubulin as previously described.
[^3H]Colchicine binding to purified tubulin and tubulin assembly. [^3H]Colchicine binding to purified tubulin and tubulin assembly (as assessed by turbidity development in purified bovine tubulin solutions) were both measured as previously described.

HT-29 cells = assay: Cell-killing activity in HT-29 cells; assay type: cell-based, human; conditions: for EC50: Homo sapiens
PD-GBM (mesenchymal) = assay: Cell-killing activity in patient-derived GBM cells, mesenchymal subtype (WST-1); assay type: cell-based, human; conditions: for EC50: Homo sapiens, 72 h
Experimental: as §1, §2, §3, §4

[3] = target: T2, sheared MTs / bovine brain tubulin (Bos taurus, UniProt P81947+Q6B856); assay: MT-tubulin partitioning (free tubulin pelleting assay, gel quantification); assay type: biochemical
T2 construct: Bovine brain tubulin was purified, polymerized into MTs and sheared; from tissue; host or cells: bovine brain
T2 sequence (Q6B856 whole entry): as the sequence (Q6B856 whole entry) above
T2 sequence (P81947 whole entry): as the sequence (P81947 whole entry) above
Experimental: as §5
Next tested was their ability to inhibit the assembly of purified tubulin using an in vitro turbidity assay as previously described. […] In this assay, compounds are incubated with sheared MTs at 37° C. and the resulting amounts of tubulin dimers (free tubulin) and polymer (MT) after 15 min is measured on polyacrylamide gels.
MT-tubulin partitioning. Bovine brain tubulin was purified, polymerized into MTs and sheared as previously described. Sheared MTs and drugs were incubated at 37° C. for 15 min and centrifuged for 10 min at 42,000 rpm at 37° C. prior to separation into supernatants containing free tubulin and pellets containing polymerized MTs as previously described. […] Peak intensities were quantified using ImageJ.

[4] = Solubility in pharmaceutical compositions for in vivo testing; assay type: physicochemical; conditions: for solubility at 2 weeks: aqueous with cosolvent or surfactant or cyclodextrin
From the text: Several pharmaceutical compositions comprising compound 19 were developed for in vivo testing in mice.

PD-GBM (proneural) = assay: Cell-killing activity in patient-derived GBM cells, proneural subtype (WST-1); assay type: cell-based, human; conditions: for EC50: Homo sapiens
Experimental: as §1, §2, §3, §4

[5] = Experimental toxicity study of i.p. injection in rat (MTD); assay type: in vivo; conditions: one i.p. injection
T98G cells = assay: Antitumor activity in T98G cells in culture (WST-1 cell viability); assay type: cell-based, human; conditions: for EC50: read-out: EC50
Experimental: Unless otherwise noted, maximal efficacies were measured at 10 μM. Data are the mean of at least three independent experiments performed in triplicate.
as §3, §4

Colo205 cells = assay: Cell-killing activity in Colo205 cells; conditions: for EC50: Colo205 cells
[6] = Pharmacokinetics and accumulation in brain parenchyma in mice; assay type: in vivo, mouse; conditions: i.p., plasma and brain tissues
Experimental: FIG. 21 illustrates pharmacokinetics of compound 19 and accumulation of 19 in brain parenchyma. A: single i.p. injection of 19 (100 mg/kg) in mice and its time-dependent accumulation in plasma and brain tissues. (n=5 mice per point). B: Repetitive i.p. injections of 19 (20 mg/kg) in mice and its time-dependent accumulation in plasma (n=5 mice per point).

[7] = system: resistant patient-derived melanocytes expressing BRAF mutations (V600E); assay: Combination with PLX4032 in resistant patient-derived melanocytes (BRAF V600E); assay type: cell-based, human; conditions: PLX4032 1 μM; low concentrations of 19
[8] = system: patient-derived healthy melanocytes; assay: Proliferation of patient-derived healthy melanocytes; assay type: cell-based, human; conditions: 1 μM

CCn1c2ccccc2c2cc(C(=O)c3cccc4ncccc34)ccc21 [Compound 20, 9-ethyl-3-(quinoline-5-carbonyl)-9H-carbazole]
Maximal tolerated dose, Acute mouse [1]: 160 mg/kg
Maximal tolerated dose, 28 Days Mouse (mg/kg bdip) [1]: 50 mg/kg bdip
EC50 (PD-GBM (classical)): 407 nM
maximal killing (% ± SEM) (PD-GBM (classical); PD-GBM (classical), at 1 μM): 53.9% ± 4.2
inhibition at 1 µM ([2]; read-out: Colchicine Binding % inhibition (mean ± SD) at 1 μM): 61 ± 4%
inhibition at 5 µM ([2]; read-out: Colchicine Binding % inhibition (mean ± SD) at 5 μM): 91 ± 1%
EC50 (HT-29 cells; HT-29): > 100000 nM
EC50 (PD-GBM (mesenchymal)): 335 nM
maximal killing (% ± SEM) (PD-GBM (mesenchymal); PD-GBM (mesenchymal), at 1 μM): 58.9% ± 1.4
IC50 ([3]; MT-Tubulin Partitioning IC50 (μM) (mean), sheared MTs at 37° C., 15 min): 3.4 µM
solubility at 2 weeks ([4]; -4 °C): 45 mM (≈ 15.8 mg/mL)
EC50 (PD-GBM (proneural); PD-GBM (proneural), WST-1, 72 hours): 316 nM
maximal killing (% ± SEM) (PD-GBM (proneural); PD-GBM (proneural), at 1 μM): 44.8% ± 10.5
Maximal tolerated dose, Acute Rat [5]: 200 mg/kg
Emax (T98G cells; Homo sapiens, T98G, T98G cells, rounded values of the discussion, read-out: maximal efficacy at killing T98G cells): 74%
EC50 (T98G cells; Homo sapiens, T98G cells, WST-1, 72 hours after treatment): 184 nM
reduction of maximal antitumor efficacy relative to compound 25 (T98G cells; T98G cells): 29%
maximal killing (% ± SEM) (T98G cells; T98G cells, at 1 μM, 72 hours): 74.4%
EC50 (Colo205 cells): > 948 nM

CCn1c2ccccc2c2cc(C(O)c3cccc4ncccc34)ccc21 (racemic) [Compound 19, (9-ethyl-9H-carbazol-3-yl)(quinolin-5-yl)methanol]
NOAEL at 28 days ([1]; in vivo, intraperitoneal, histopathology of 22 organs after repeated (28 days) mouse administration, read-out: No-observed-adverse-effect-level (NOAEL)): 20 mg/kg
Maximal tolerated dose, Acute mouse [1]: 150 mg/kg
Maximal tolerated dose, 28 Days Mouse (mg/kg bdip) [1]: 20 mg/kg bdip
EC50 (PD-GBM (classical); Cell ID SN243, classical, WST-1, 3 days, read-out: EC50): 34 nM
EC50 (PD-GBM (classical); Cell ID SN262, classical, WST-1, 3 days, read-out: EC50): 47 nM
EC50 (PD-GBM (classical); Cell ID SN264, classical, WST-1, 3 days, read-out: EC50): 102 nM
blood brain barrier passage (in words) [6]: passes the blood brain barrier
combination with PLX4032 (in words) [7]: Synergistic activity
IC50 ([2]; glass fiber filtering assay, FIG. 25A, read-out: IC50 of competition for [3H]Colchicine binding): 719 nM
combination with paclitaxel (in words) (HT-29 cells; HT29 cells, low concentrations): synergistic activity
EC50 (HT-29 cells; HT-29 cells, read-out: EC50): 73 nM
EC50 (PD-GBM (mesenchymal); Cell ID SN260, mesenchymal, WST-1, 3 days, read-out: EC50): 79 nM
EC50 (PD-GBM (mesenchymal); Cell ID SN276, mesenchymal, WST-1, 3 days, read-out: EC50): 17 nM
effect on MT assembly/disassembly, MT-free tubulin partitioning (in words) ([3]; free tubulin pelleting assay): triggers microtubule disassembly
solubility (in words) ([4]; 60 mM in 10% DMSO in DPBS): insoluble
solubility (in words) ([4]; 60 mM in 20% CRE in DPBS): partially soluble
solubility at 2 weeks ([4]; in (a) 10% DMSO and 20% CRE in DPBS, (b) 5% EtOH and 10% CRE in DPBS, (c) 5% EtOH and 20% CRE in DPBS, −4° C. for 2 weeks, read-out: concentration at which found to be soluble): 60 mM (≈ 21.1 mg/mL)
EC50 (PD-GBM (proneural); 72 h, Cell ID SN227, proneuronal, WST-1, 3 days): 90 nM
Maximal tolerated dose, Acute Rat [5]: 50 mg/kg
EC50 (T98G cells; Homo sapiens, T98G cells in culture (FIG. 19)): 53 nM
combination with 5-FU (in words) (Colo205 cells): synergistic activity
EC50 (Colo205 cells): 51 nM
effect on healthy melanocytes (in words) [8]: partial inhibition of patient-derived healthy melanocytes cell proliferation in culture and no killing activity
